Data from patent US7112608B2, “Hydroxyphenylundecane, a process for their production and their use” (Sanofi-Aventis Deutschland GmbH, priority 2002, dated 2006).

Columns and labels:
[1] = biological target: T1, JNK3 (Homo sapiens, UniProt P53779); experiment: JNK3 Assay (HTRF, JNK-3/GST-ATF2); assay type: biochemical; conditions: JNK3 kinase, GST-ATF2 substrate, 15 μM ATP solution, 20 min at 37° C.
T1 construct: Biotech, Vitry
Procedure: The assay was performed on a Cybio pipetting system in the 384-well plate format. The final assay volume was 30 μl, comprising 10 μl of a probe (an extract or a pure substance-to-be-tested), 10 μl of an enzym-subtrate mixture (JNK-3/GST-ATF2) and 10 μl ATP solution. After 20 min incubation at 37° C. 50 μl HTRF abtibody mixture (XL665-anti-GST/(Eu)cryptat anti-P-ATF2) were added. The emission intensity of the energy transfer and of Eu at 665 and 615 nm, resp., were measured after 120 min at room temperature and stimulation of the probes at 340 nm in a Victor2® (Wallac).
Buffer I for diluting JNK3, GST-ATF2, ATP:
Buffer II for diluting HTRF reagents:
Each plate included 16 positiv controls (maximum energy transfer, buffer I instead of probe), 8 blank controls (minimal energy transfer, buffer 11 instead of ATP) and 8 wells containing a 200 μM EDTA solution.
The results were calculated as follows:
Signal Ration: SR=(intensity(665 nm)/intensity(615 nm)) Blank Correction: Delta F(%)=[…] Inhibition: Inhibition (%)=100×[1−(Delta F(Probe)/Delta F(max))

[2] = Physico chemical properties: solubility; assay type: physicochemical; conditions: solvents in which the compound is soluble

T1 sequence (P53779 whole entry): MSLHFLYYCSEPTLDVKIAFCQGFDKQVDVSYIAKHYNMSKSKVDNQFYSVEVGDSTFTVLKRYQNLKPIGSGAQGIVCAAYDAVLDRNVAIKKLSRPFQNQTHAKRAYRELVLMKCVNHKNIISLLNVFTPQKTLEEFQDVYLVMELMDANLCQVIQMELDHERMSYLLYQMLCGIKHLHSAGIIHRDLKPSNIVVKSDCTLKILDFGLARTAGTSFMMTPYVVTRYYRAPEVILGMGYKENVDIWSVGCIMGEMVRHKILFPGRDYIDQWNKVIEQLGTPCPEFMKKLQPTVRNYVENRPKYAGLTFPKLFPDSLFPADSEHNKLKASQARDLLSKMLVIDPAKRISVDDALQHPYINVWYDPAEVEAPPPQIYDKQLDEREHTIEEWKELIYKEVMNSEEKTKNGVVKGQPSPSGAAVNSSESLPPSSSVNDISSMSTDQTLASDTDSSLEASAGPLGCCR

CCCCCCCCCCCc1cc(O)cc(O)c1C(=O)OC(CCC)CCCCCCCc1cc(OS(=O)(=O)O)cc(OS(=O)(=O)O)c1 (stereo not drawn) [Spinosulfate A]
IC50 [1]: 0.5 µM
Solubility [2]: Methanol, DMSO

CCCCCCCCCCCc1cc(O)cc(O)c1C(=O)OC(CCC)CCCCCCCc1cc(O)cc(O)c1 (stereo not drawn) [Spinosulfate B]
IC50 [1]: 10 µM
